Measurements: US11191811B2, “Osteocalcin as a treatment for frailty associated with aging” (THE TRUSTEES OF COLUMBIA UNIVERSITY IN THE CITY OF NEW YORK, priority 2014, dated 2021)

Key:
Osteocalcin−/− mice = assay: Behavioral tests of adult Osteocalcin−/− offspring of osteocalcin-injected pregnant Osteocalcin−/− mothers; type: in vivo, mouse; settings: 240 ng/day once a day to pregnant mothers, E0.5 to E18.5
Experimental: FIG. 13. Maternal osteocalcin determines spatial learning and memory in adult offspring. (A-F) DLT (A), EPMT (B), OFT (C), FST (D), TST (E), and MWMT (F) performed in 3-month-old Osteocalcin^−/− mice born from Osteocalcin^−/− mothers injected once a day with vehicle or recombinant uncarboxylated osteocalcin (240 ng/day) during pregnancy compared to WT mice. (G) Surface of the lateral ventricle over brain area (%) of E18.5 hippocampi coronal sections of WT embryos originating from WT mothers and Osteocalcin^−/− embryos originating from osteocalcin-injected Osteocalcin^−/− mothers. (H) Number of apoptotic cells (stained by TUNEL assay) of E18.5 hippocampi coronal sections of WT embryos originating from WT mothers and Osteocalcin^−/− embryos originating from Osteocalcin^−/− mothers injected with osteocalcin (240 ng/day). […]
For osteocalcin delivery to pregnant mice, IP injections (240 ng/day) were performed as soon as a plug was present daily until delivery (E0.5-E18.5). […] Leptin and osteocalcin content in sera and tissues were determined by ELISA.
Spatial memory was assessed with Morris water maze (MWM) setup (Morris, 1981, Nature 297:681-683) using a training protocol adapted for mice (D'Hooge et al., 2005, J. Soc. Neurosci. 25:6539-6549). […] Spatial learning is assessed across repeated trials (4 trials/day for 10 days). […]

C2C12 myoblasts = assay: GLUT4 translocation to the plasma membrane (flow cytometry); type: cell-based
Excerpt: Rather, it promoted the translocation of GLUT4 to the plasma membrane of C2C12 myoblasts that express both Gprc6a and Glut4. A similar increase in the accumulation of GLUT4 was observed after exercise in WT but not in Gprc6aMck−/− mice (FIG. 26I). Signaling through GPCRs can favor PI3K activation, leading to Akt phosphorylation, an event that favors the translocation of GLUT4 to the plasma membrane (Lopez-Ilasaca et al., 1997, Science 275:394-397). In agreement with this notion, Akt phosphorylation in muscles of Gprc6Mck−/− mice was decreased compared to muscles of control mice after exercise. […]
Glucose and insulin tolerance tests were performed as previously described (Lee et al., 2007, Cell 130:456-469). For in vivo glucose uptake, a bolus of 2-deoxy-d-[^3H]glucose (^3H-2-DG, Perkin Elmer) (10 μCi) was administered before an endurance run. ^3H-2-DG and ^3H-2-DG-6-P content in muscle was determined by liquid scintillation counter and normalized to muscle weight. […] GLUT4 translocation was determined by flow cytometry using an antibody against the extracellular domain of the GLUT4 protein (Santa Cruz, Sc-1606). […] To analyze mitochondrial function, myofibers were treated with three compounds in succession (oligomycin 10 μg/ml, FCCP 200 μM, rotenone 0.2 μM) and OCR was recorded following administration of each of them.

Gprc6aMck−/− mice = assay: Endurance exercise on treadmill until exhaustion; type: in vivo, mouse; settings: Gprc6aMck−/− mice treated with Ocn
Experimental: First, whether a single intraperitoneal injection of uncarboxylated mouse osteocalcin (osteocalcin) (100 ng/g of body weight) immediately before exercise would improve the exercise capacity of 3 month-old WT mice was tested.
For exercise studies, all mice were trained before the tests to run on a treadmill (Harvard apparatus) for three days (10 minutes/day). The day of the test, mice were acclimated to the treadmill for 5 minutes followed by 10 minutes running at a constant speed of 17 cm/s, then a gradual increase in the speed up to 30 cm/s. Next, mice were run until exhaustion as defined by the number of times a mouse fell off to the electric grid during one minute (>15). Measurements of muscle strength were carried out using a grip strength meter (Columbus instruments). Values are expressed as the average of five single measurements, taken one minute apart from each other. For all biochemical and metabolic analyses performed, blood/tissues were collected and processed either at rest or at the end of a 40 min run (30 cm/s).

uncarboxylated osteocalcin: Recombinant uncarboxylated mouse osteocalcin, bacterially produced, purified on glutathione beads and cleaved from the GST subunit by thrombin (YLGASVPSPDPLEPTREQCELNPACDELSDQYGLKTAYKRIYGITI)
anxiety or depression phenotypes of the offspring (Osteocalcin−/− mice): did not have any beneficial effect | deficit in learning and memory of the offspring (Osteocalcin−/− mice): rescued over two third | translocation of GLUT4 to the plasma membrane (C2C12 myoblasts): promoted | muscle function (Gprc6aMck−/− mice): did not improve
